pIC50: −log10 of the molar value. Where two headings read alike, the source gives them in different places.
What was measured:
[1] = biological target: PI3K-γ (Homo sapiens, UniProt P48736); assay: PI3K-gamma fluorescence polarization assay
[2] = tested on: human prostate LNCap tumor cell line; assay: In vitro cell culture growth assay (MTS), LNCap; conditions: read-out: IC50 LNCap
[3] = biological target: Human mTOR (FLAG-TOR) (Homo sapiens, UniProt P42345); assay: mTOR kinase assay (DELFIA format, purified enzyme); format: biochemical; conditions: read-out: IC50 mTOR
[4] = biological target: PI3K-α (Homo sapiens, UniProt P42336); assay: PI3K-alpha fluorescence polarization assay; conditions: read-out: IC50 PI3Kα
Sequence of PI3K-α (P42336 whole entry, species assumed): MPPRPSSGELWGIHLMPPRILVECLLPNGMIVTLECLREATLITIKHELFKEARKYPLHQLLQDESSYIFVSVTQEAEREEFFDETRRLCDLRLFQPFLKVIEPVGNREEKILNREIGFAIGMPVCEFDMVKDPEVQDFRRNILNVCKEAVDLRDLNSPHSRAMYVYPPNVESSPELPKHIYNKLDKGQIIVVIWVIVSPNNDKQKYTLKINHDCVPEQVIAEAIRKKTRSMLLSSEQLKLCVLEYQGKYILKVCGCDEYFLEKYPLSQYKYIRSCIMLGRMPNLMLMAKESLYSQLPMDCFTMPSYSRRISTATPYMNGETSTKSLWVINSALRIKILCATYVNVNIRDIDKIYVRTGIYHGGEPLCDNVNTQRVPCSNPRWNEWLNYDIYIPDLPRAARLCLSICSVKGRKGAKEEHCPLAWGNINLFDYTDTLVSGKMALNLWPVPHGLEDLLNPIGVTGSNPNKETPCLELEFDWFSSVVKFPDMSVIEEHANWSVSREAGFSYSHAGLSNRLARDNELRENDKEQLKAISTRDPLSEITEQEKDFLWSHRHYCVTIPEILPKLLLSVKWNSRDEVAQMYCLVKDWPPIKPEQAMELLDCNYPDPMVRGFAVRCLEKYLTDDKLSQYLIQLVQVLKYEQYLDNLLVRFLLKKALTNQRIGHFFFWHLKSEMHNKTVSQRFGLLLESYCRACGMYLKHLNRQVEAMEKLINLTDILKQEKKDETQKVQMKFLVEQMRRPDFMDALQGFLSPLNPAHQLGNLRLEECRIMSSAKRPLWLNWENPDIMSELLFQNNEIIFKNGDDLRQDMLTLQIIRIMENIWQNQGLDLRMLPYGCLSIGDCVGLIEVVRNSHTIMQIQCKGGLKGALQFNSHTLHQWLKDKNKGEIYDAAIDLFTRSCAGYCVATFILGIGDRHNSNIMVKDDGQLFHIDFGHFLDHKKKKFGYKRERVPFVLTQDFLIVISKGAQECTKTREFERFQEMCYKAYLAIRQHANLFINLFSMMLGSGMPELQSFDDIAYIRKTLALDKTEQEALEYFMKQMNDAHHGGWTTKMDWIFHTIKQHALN
Sequence of PI3K-α (P27986 whole entry partner, species assumed): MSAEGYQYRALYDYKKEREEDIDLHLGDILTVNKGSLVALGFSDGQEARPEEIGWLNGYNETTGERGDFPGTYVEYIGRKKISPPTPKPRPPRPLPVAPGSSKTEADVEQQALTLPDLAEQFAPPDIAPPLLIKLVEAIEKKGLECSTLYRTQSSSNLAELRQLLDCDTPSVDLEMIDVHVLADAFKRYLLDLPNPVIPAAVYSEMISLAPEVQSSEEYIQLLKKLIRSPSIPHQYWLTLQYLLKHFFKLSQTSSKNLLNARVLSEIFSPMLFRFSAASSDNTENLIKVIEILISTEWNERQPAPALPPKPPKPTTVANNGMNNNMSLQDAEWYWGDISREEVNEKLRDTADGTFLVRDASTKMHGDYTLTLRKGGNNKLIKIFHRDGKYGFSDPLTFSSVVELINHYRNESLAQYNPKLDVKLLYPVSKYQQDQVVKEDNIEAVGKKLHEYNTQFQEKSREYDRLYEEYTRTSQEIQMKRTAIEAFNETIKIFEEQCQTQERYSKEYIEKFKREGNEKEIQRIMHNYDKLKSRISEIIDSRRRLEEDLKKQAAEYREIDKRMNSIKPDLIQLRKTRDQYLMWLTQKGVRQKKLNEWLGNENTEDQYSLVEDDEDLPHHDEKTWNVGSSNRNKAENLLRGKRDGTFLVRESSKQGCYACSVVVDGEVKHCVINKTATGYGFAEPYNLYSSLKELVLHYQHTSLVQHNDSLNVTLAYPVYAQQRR

Sequence of Human mTOR (FLAG-TOR) (P42345 1360-2549 limits assumed): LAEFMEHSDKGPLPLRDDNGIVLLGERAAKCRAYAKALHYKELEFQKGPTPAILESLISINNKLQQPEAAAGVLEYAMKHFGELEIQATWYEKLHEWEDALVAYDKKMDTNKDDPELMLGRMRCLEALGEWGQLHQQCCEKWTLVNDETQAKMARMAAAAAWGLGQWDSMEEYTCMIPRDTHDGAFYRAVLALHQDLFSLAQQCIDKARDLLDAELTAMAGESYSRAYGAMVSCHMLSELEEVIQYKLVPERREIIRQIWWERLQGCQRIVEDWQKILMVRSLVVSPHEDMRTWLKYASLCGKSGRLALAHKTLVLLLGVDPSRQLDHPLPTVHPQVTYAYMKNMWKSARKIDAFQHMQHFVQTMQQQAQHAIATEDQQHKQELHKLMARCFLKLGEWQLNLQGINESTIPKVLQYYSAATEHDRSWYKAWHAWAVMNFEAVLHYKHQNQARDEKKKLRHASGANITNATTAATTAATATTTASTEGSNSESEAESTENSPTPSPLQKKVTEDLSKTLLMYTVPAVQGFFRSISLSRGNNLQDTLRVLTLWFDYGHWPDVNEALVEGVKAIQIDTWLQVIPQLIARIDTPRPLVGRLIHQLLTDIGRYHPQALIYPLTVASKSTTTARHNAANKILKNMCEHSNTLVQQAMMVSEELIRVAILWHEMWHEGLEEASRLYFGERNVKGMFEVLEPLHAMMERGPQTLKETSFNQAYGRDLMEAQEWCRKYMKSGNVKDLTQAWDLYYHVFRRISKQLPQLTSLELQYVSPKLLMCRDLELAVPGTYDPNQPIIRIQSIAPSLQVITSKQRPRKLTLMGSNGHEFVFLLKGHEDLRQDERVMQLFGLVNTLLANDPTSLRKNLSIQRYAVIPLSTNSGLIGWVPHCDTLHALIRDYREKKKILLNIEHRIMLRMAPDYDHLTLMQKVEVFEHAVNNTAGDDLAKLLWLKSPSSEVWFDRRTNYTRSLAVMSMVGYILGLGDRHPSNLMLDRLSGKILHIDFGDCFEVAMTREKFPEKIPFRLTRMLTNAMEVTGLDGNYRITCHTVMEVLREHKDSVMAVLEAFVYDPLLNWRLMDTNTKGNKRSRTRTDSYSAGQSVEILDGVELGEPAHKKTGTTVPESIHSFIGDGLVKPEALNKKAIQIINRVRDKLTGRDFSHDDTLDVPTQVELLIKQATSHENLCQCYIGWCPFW
Sequence of PI3K-γ (P48736 whole entry, species assumed): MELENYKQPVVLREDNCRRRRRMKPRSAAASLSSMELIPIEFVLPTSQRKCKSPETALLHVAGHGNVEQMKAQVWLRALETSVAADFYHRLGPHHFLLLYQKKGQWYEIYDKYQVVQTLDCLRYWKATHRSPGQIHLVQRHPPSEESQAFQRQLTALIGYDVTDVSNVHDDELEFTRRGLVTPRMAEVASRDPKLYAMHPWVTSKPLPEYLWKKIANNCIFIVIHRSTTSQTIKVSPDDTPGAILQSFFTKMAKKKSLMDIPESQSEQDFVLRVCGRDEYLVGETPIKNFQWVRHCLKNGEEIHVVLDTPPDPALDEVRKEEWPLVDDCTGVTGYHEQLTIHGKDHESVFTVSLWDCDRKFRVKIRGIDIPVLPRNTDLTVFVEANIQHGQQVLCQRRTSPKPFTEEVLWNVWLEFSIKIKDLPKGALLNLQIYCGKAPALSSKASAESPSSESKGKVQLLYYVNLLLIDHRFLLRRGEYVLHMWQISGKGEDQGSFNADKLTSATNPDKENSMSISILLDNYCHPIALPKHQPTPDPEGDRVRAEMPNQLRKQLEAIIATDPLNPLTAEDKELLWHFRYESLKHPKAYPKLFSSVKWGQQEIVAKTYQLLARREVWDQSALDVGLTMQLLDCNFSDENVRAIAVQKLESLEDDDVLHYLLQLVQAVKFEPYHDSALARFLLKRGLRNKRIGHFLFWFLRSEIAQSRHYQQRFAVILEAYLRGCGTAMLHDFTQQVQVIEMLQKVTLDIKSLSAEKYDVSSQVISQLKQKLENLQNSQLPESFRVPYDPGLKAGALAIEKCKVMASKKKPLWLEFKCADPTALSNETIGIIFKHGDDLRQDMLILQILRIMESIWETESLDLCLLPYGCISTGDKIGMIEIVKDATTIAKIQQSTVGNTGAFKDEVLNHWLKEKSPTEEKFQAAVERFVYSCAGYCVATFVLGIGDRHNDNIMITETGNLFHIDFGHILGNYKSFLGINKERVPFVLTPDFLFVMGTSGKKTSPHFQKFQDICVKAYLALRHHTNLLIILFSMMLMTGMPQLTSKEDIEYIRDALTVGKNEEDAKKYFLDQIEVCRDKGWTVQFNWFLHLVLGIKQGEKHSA

CCNC1CCN(c2nc(-c3ccc(NC(=O)Nc4ccncc4)cc3)nc(N3CC4CCC(C3)O4)n2)CC1 [Example 119, 1-(4-{4-[4-(ethylamino)piperidin-1-yl]-6-(8-oxa-3-azabicyclo[3.2.1]oct-3-yl)-1,3,5-triazin-2-yl}phenyl)-3-pyridin-4-ylurea]
pIC50 ([1]; read-out: IC50 PI3Kγ): 5.12
pIC50 ([2]; Homo sapiens, LNCaP, 72 h): 5.55
pIC50 [3]: 6.85
pIC50 [4]: 5.91

C[C@@H]1COCCN1c1nc(-c2ccc(NC(=O)Nc3ccc(CN4CCN(C)CC4)cc3)cc2)nc(N2C[C@@H]3C[C@H]2CO3)n1 [Example 413, 1-(4-(4-((1S,4S)-2-oxa-5-azabicyclo[2.2.1]heptan-5-yl)-6-((R)-3-methylmorpholino)-1,3,5-triazin-2-yl)phenyl)-3-(4-((4-methylpiperazin-1-yl)methyl)phenyl)urea]
pIC50 [1]: < 5.00
pIC50 ([2]; Homo sapiens, LNCaP, 72 h): 6.82
pIC50 [3]: 8.04
pIC50 [4]: 5.82

CC(C)Nc1nc(-c2ccc(NC(=O)Nc3ccc(OCCN4CCCC4)cc3)cc2)nc(N2C3CCC2COC3)n1 [Example 384, 1-(4-(4-(3-oxa-8-azabicyclo[3.2.1]octan-8-yl)-6-(isopropylamino)-1,3,5-triazin-2-yl)phenyl)-3-(4-(2-(pyrrolidin-1-yl)ethoxy)phenyl)urea]
pIC50 ([1]; read-out: IC50 PI3Kγ): 5.27
pIC50 ([2]; Homo sapiens, LNCaP, 72 h): 7.30
pIC50 [3]: 8.19
pIC50 [4]: 5.37

COC(=O)Nc1ccc(-c2nc(-c3ccc(NC(=O)Nc4ccc(N5CCN(C)CC5)cc4)cc3)nc(N3CC4CCC(C3)O4)n2)cc1 [Example 145, methyl(4-{4-[4-({[4-(4-methylpiperazin-1-yl)phenyl]carbamoyl}amino)phenyl]-6-(8-oxa-3-azabicyclo[3.2.1]oct-3-yl)-1,3,5-triazin-2-yl}phenyl)carbamate]
pIC50 ([1]; read-out: IC50 PI3Kγ): 6.00
pIC50 ([2]; Homo sapiens, LNCaP, 72 h): 6.92
pIC50 [3]: 8.05
pIC50 [4]: 6.24

C[C@@H]1COCCN1c1nc(-c2ccc(NC(=O)Nc3ccc(OCCN(C)C)cc3)cc2)nc(N2CCOC[C@H]2C)n1 [Example 402, 1-(4-(4,6-bis((R)-3-methylmorpholino)-1,3,5-triazin-2-yl)phenyl)-3-(4-(2-(dimethylamino)ethoxy)phenyl)urea]
pIC50 ([1]; read-out: IC50 PI3Kγ): 5.44
pIC50 ([2]; Homo sapiens, LNCaP, 72 h): 8.15
pIC50 [3]: 8.74
pIC50 [4]: 6.27

CNC1CCN(c2nc(-c3ccc(NC(=O)Nc4ccncc4)cc3)nc(N3CC4CCC(C3)O4)n2)CC1 [Example 118, 1-(4-{4-[4-(methylamino)piperidin-1-yl]-6-(8-oxa-3-azabicyclo[3.2.1]oct-3-yl)-1,3,5-triazin-2-yl}phenyl)-3-pyridin-4-ylurea]
pIC50 ([1]; read-out: IC50 PI3Kγ): 6.53
pIC50 ([2]; Homo sapiens, LNCaP, 72 h): 5.52
pIC50 [3]: 6.71
pIC50 [4]: 6.42

CN1CCN(c2ccc(NC(=O)Nc3ccc(-c4nc(N5CC6CCC(C5)O6)nc(N5[C@H](CO)CC[C@@H]5CO)n4)cc3)cc2)CC1 [Example 668, 1-(4-{4-[(2R,5S)-2,5-bis(hydroxymethyl)pyrrolidin-1-yl]-6-(8-oxa-3-azabicyclo[3.2.1]oct-3-yl)-1,3,5-triazin-2-yl}phenyl)-3-[4-(4-methylpiperazin-1-yl)phenyl]urea]
pIC50 ([1]; read-out: IC50 PI3Kγ): 6.20
pIC50 ([2]; Homo sapiens, LNCaP, 72 h): 9.10
pIC50 [3]: 9.25
pIC50 [4]: 6.91

O=C(Nc1ccc(CN2CCCC2)cc1)Nc1ccc(-c2nc(N3C4CCC3COC4)nc(N3C4CCC3COC4)n2)cc1 [Example 369, 1-(4-(4,6-di(3-oxa-8-azabicyclo[3.2.1]octan-8-yl)-1,3,5-triazin-2-yl)phenyl)-3-(4-(pyrrolidin-1-ylmethyl)phenyl)urea]
pIC50 ([1]; read-out: IC50 PI3Kγ): 5.59
pIC50 ([2]; Homo sapiens, LNCaP, 72 h): 8.52
pIC50 [3]: 8.89
pIC50 [4]: 6.44

O=C(Nc1ccc(-c2nc(N3CCSCC3)nc(N3C4CCC3COC4)n2)cc1)Nc1cccnc1 [Example 392, 1-(4-(4-(3-oxa-8-azabicyclo[3.2.1]octan-8-yl)-6-thiomorpholino-1,3,5-triazin-2-yl)phenyl)-3-(pyridin-3-yl)urea]
pIC50 ([1]; read-out: IC50 PI3Kγ): 5.56
pIC50 ([2]; Homo sapiens, LNCaP, 72 h): 6.32
pIC50 [3]: 8.26
pIC50 [4]: 5.93

O=C(Nc1ccncc1)Nc1ccc(-c2nc(N3CCC(NCCO)CC3)nc(N3CC4CCC(C3)O4)n2)cc1 [Example 123, 1-(4-(4-(8-oxa-3-azabicyclo[3.2.1]octan-3-yl)-6-(4-(2-hydroxyethylamino)piperidin-1-yl)-1,3,5-triazin-2-yl)phenyl)-3-(pyridin-4-yl)urea]
pIC50 ([1]; read-out: IC50 PI3Kγ): 5.20
pIC50 ([2]; Homo sapiens, LNCaP, 72 h): 5.39
pIC50 [3]: 6.94
pIC50 [4]: 6.12

COC(=O)CNC1CCN(c2nc(-c3ccc(NC(=O)Nc4ccncc4)cc3)nc(N3CC4CCC(C3)O4)n2)CC1 [Example 125, Methyl 2-(1-(4-(8-oxa-3-azabicyclo[3.2.1]octan-3-yl)-6-(4-(3-pyridin-4-ylureido)phenyl)-1,3,5-triazin-2-yl)piperidin-4-ylamino)acetate]
pIC50 ([1]; read-out: IC50 PI3Kγ): 5.06
pIC50 ([2]; Homo sapiens, LNCaP, 72 h): 6.00
pIC50 [3]: 7.80
pIC50 [4]: 6.08

O=C(Nc1ccc(-c2nc(NCCC3CCNCC3)nc(N3CC4CCC(C3)O4)n2)cc1)Nc1cccnc1 [Example 170, 1-(4-{4-(8-oxa-3-azabicyclo[3.2.1]oct-3-yl)-6-[(2-piperidin-4-ylethyl)amino]-1,3,5-triazin-2-yl}phenyl)-3-pyridin-3-ylurea]
pIC50 ([1]; read-out: IC50 PI3Kγ): 5.02
pIC50 ([2]; Homo sapiens, LNCaP, 72 h): 5.35
pIC50 [3]: 8.40
pIC50 [4]: 6.42

C[C@@H]1COCCN1c1nc(-c2ccc(NC(=O)Nc3cccnc3)cc2)nc(N2CCOC[C@H]2C)n1 [Example 398, 1-(4-(4,6-bis((R)-3-methylmorpholino)-1,3,5-triazin-2-yl)phenyl)-3-(pyridin-3-yl)urea]
pIC50 ([1]; read-out: IC50 PI3Kγ): 5.41
pIC50 ([2]; Homo sapiens, LNCaP, 72 h): 7.92
pIC50 [3]: 9.68
pIC50 [4]: 6.19

CNCCNC(=O)c1ccc(NC(=O)Nc2ccc(-c3nc(C4CCOCC4)nc(N4C5CCC4COC5)n3)cc2)cc1 [Example 458, 4-(3-(4-(4-(3-oxa-8-azabicyclo[3.2.1]octan-8-yl)-6-(tetrahydro-2H-pyran-4-yl)-1,3,5-triazin-2-yl)phenyl)ureido)-N-(2-(methylamino)ethyl)benzamide]
pIC50 ([1]; read-out: IC50 PI3Kγ): 6.29
pIC50 ([2]; Homo sapiens, LNCaP, 72 h): 8.10
pIC50 [3]: 9.70
pIC50 [4]: 7.48

O=C(Nc1ccc(CN2CCNCC2)cc1)Nc1ccc(-c2nc(N3C4CCC3COC4)nc(N3C4CCC3COC4)n2)cc1 [Example 366, 1-(4-(4,6-di(3-oxa-8-azabicyclo[3.2.1]octan-8-yl)-1,3,5-triazin-2-yl)phenyl)-3-(4-(piperazin-1-ylmethyl)phenyl)urea]
pIC50 ([1]; read-out: IC50 PI3Kγ): 5.52
pIC50 ([2]; Homo sapiens, LNCaP, 72 h): 8.55
pIC50 [3]: 8.96
pIC50 [4]: 6.23

NC(=O)c1ccc(NC(=O)Nc2ccc(-c3nc(C4CCOCC4)nc(N4C5CCC4COC5)n3)cc2)cc1 [Example 454, 4-(3-(4-(4-(3-oxa-8-azabicyclo[3.2.1]octan-8-yl)-6-(tetrahydro-2H-pyran-4-yl)-1,3,5-triazin-2-yl)phenyl)ureido)benzamide]
pIC50 ([1]; read-out: IC50 PI3Kγ): 5.83
pIC50 ([2]; Homo sapiens, LNCaP, 72 h): > 9.10
pIC50 [3]: 9.70
pIC50 [4]: 6.56

1-{4-[4-(4-morpholin-4-ylpiperidin-1-yl)-6-(8-oxa-3-azabicyclo[3.2.1]oct-3-yl)-1,3,5-triazin-2-yl]phenyl}-3-pyridin-4-ylurea [Example 121]
pIC50 ([1]; read-out: IC50 PI3Kγ): 5.40
pIC50 ([2]; MTS cell growth assay, three days after drug treatment): 6.00
pIC50 [3]: 7.36
pIC50 [4]: 5.73

O=C(Nc1ccc(-c2nc(NC3CNC3)nc(N3CC4CCC(C3)O4)n2)cc1)Nc1cccnc1 [Example 154, 1-{4-[4-(azetidin-3-ylamino)-6-(8-oxa-3-azabicyclo[3.2.1]oct-3-yl)-1,3,5-triazin-2-yl]phenyl}-3-pyridin-3-ylurea]
pIC50 ([1]; read-out: IC50 PI3Kγ): 5.42
pIC50 ([2]; Homo sapiens, LNCaP, 72 h): 4.66
pIC50 [3]: 7.19
pIC50 [4]: 6.56

O=C(Nc1ccc(CO)cc1)Nc1ccc(-c2nc(N3CC4CCC(C3)O4)nc(N3CC4CCC(C3)O4)n2)cc1 [Example 32, 1-[4-(4,6-di-8-oxa-3-azabicyclo[3.2.1]oct-3-yl-1,3,5-triazin-2-yl)phenyl]-3-[4-(hydroxymethyl)phenyl]urea]
pIC50 ([1]; read-out: IC50 PI3Kγ): 5.60
pIC50 ([2]; Homo sapiens, LNCaP, 72 h): 9.15
pIC50 [3]: 9.54
pIC50 [4]: 7.35

CN1CCN(CC(=O)Nc2ccc(NC(=O)Nc3ccc(-c4nc(N5C6CCC5COC6)nc(N5C6CCC5COC6)n4)cc3)cc2)CC1 [Example 374, N-(4-(3-(4-(4,6-di(3-oxa-8-azabicyclo[3.2.1]octan-8-yl)-1,3,5-triazin-2-yl)phenyl)ureido)phenyl)-2-(4-methylpiperazin-1-yl)acetamide]
pIC50 ([1]; read-out: IC50 PI3Kγ): 5.41
pIC50 ([2]; Homo sapiens, LNCaP, 72 h): > 9.10
pIC50 [3]: 9.85
pIC50 [4]: 7.19

O=C1CCN(c2nc(-c3ccc(NC(=O)Nc4ccncc4)cc3)nc(N3CC4CCC(C3)O4)n2)CC1 [Example 115, 1-(4-(4-(8-oxa-3-azabicyclo[3.2.1]octan-3-yl)-6-(4-oxopiperidin-1-yl)-1,3,5-triazin-2-yl)phenyl)-3-(pyridin-4-yl)urea]
pIC50 ([1]; read-out: IC50 PI3Kγ): 5.70
pIC50 ([2]; Homo sapiens, LNCaP, 72 h): 6.70
pIC50 [3]: 8.49
pIC50 [4]: 6.96

O=C(CN1CCCC1)Nc1ccc(NC(=O)Nc2ccc(-c3nc(N4CC5CCC(C4)O5)nc(N4CC5CCC(C4)O5)n3)cc2)cc1 [Example 353, N-[4-({[4-(4,6-di-8-oxa-3-azabicyclo[3.2.1]oct-3-yl-1,3,5-triazin-2-yl)phenyl]carbamoyl}amino)phenyl]-2-pyrrolidin-1-ylacetamide]
pIC50 ([1]; read-out: IC50 PI3Kγ): 6.30
pIC50 ([2]; Homo sapiens, LNCaP, 72 h): > 9.10
pIC50 [3]: 9.66
pIC50 [4]: 8.07

O=C(Nc1ccc(-c2nc(OCC3CCNCC3)nc(N3CC4CCC(C3)O4)n2)cc1)Nc1cccnc1 [Example 183, 1-{4-[4-(8-oxa-3-azabicyclo[3.2.1]oct-3-yl)-6-(piperidin-4-ylmethoxy)-1,3,5-triazin-2-yl]phenyl}-3-pyridin-3-ylurea]
pIC50 ([1]; read-out: IC50 PI3Kγ): 4.96
pIC50 ([2]; Homo sapiens, LNCaP, 72 h): 5.07
pIC50 [3]: 7.85
pIC50 [4]: 6.28
